Values of other authors as cited in US10688072B2, “Misoprostol dispersible tablet” (Azanta Danmark A/S, priority 2014, dated 2020).
Like-named read-outs stand apart in the source and are kept apart here.

Conditions: 400 μg

Peak in plasma concentration (oral administration compared with vaginal): larger peak than vaginal administration
Inter-subject variability in % at peak concentration (oral route compared with vaginal): smaller than for vaginal application
SMILES: CCCCC(C)(O)C/C=C/[C@H]1[C@H](O)CC(=O)[C@@H]1CCCCCCC(=O)OC (mixture of isomers) [misoprostol]
Peak in plasma concentration (sublingual administration compared with oral and vaginal): larger peak in plasma concentration of misoprostol than oral and vaginal
Inter-subject variability in % at peak concentration (sublingual route compared with oral and vaginal): smaller following the sublingual route of administration than for oral and vaginal application
